Test results published in patent US20240400560A1, “BICYCLIC HETEROCYCLIC DERIVATIVE HAVING VIRAL GROWTH INHIBITORY ACTIVITY AND PHARMACEUTICAL COMPOSITION CONTAINING SAME” (Shionogi & Co., Ltd., priority 2021, published 2024).
Read-outs that look alike come from different tables or passages of the source.

Tests used:
SARS-CoV-2 = assay: Inhibitory activity of cytopathic effect (CPE) in HEK293T/ACE2-TMPRSS2 cells; type: cell-based
SARS-CoV-2 3CL protease = SARS-CoV-2 3CL protease (Severe acute respiratory syndrome coronavirus 2, UniProt P0DTD1); assay: Inhibitory activity test against SARS-CoV-2 3CL proteases; type: biochemical
[1] = Severe acute respiratory syndrome coronavirus 2, HEK-293T, 72 h, HEK293T/ACE2-TMPRSS2 cells, cultured 3 days, CellTiter-Glo 2.0 luminescence, read-out: EC50 (50% SARS-CoV-2 infected cell death inhibitory concentration)
[2] = IC50 (50% SARS-CoV-2 3CL protease inhibitory concentration)
[3] = Severe acute respiratory syndrome coronavirus 2, HEK-293T, 72 h, 50% SARS-CoV-2 infected cell death inhibitory concentration, HEK293T/ACE2-TMPRSS2 cells, CellTiter-Glo 2.0 after 3 days culture, read-out: EC50
[4] = read-out: IC50 (50% SARS-CoV-2 3CL protease inhibitory concentration)

| SMILES | EC50 (SARS-CoV-2; [1]) | IC50 (SARS-CoV-2 3CL protease; [4]) | other results |
| --- | --- | --- | --- |
| [2H]C([2H])([2H])n1cnc(Cn2c(=O)c3c(OC)nc(N4CC[C@@H](F)C4)cc3n(Cc3cc(F)c(F)c(F)c3)c2=O)n1 [Compound I-0917] | < 100 nM |  | IC50 (SARS-CoV-2 3CL protease; [2]): < 100 nM |
| Cn1cnc(Cn2c(=O)c3c4ncn(C)c4c(-c4cc(C#N)ccc4Cl)cc3n(Cc3cc(F)c(F)c(F)c3)c2=O)n1 [Compound I-0556] |  | 0.94 nM | EC50 (SARS-CoV-2; [3]): 376 nM |
| COc1cc(-c2cn3nncc3cc2Cl)cc2c1c(=O)n(Cc1ncn(C)n1)c(=O)n2Cc1cc(F)c(F)c(F)c1 [Compound I-0914] | < 100 nM | < 100 nM |  |
| COc1nc2c(=O)n(Cc3ncn(C)n3)c(=O)n(Cc3cc(C#N)c(F)cc3C)c2cc1-c1cc(C#N)ccc1Cl [Compound I-0723] | < 100 nM | < 100 nM |  |
| COc1cc(-c2cc(C3(O)CC3)ccc2Cl)cc2c1c(=O)n(Cc1ncn(C)n1)c(=O)n2Cc1cc(F)c(F)c(F)c1 [Compound I-0546] | < 100 nM | < 100 nM |  |
| COc1nc(N2CCC(O)(CF)C2)cc2c1c(=O)n(-c1cncc(Cl)c1)c(=O)n2-c1ccc(F)c(Cl)c1 (stereo not shown) [Compound I-1004] | < 100 nM | < 100 nM |  |
| Cc1c(-c2cc(C#N)ccc2Cl)cc2c(c1F)c(=O)n(Cc1ncn(C)n1)c(=O)n2Cc1cc(F)c(F)c(Cl)c1 [Compound I-0637] | < 100 nM | < 100 nM |  |
| Cn1cnc(Cn2c(=O)c3c4nccnc4c(N4CCC(F)(F)C4)cc3n(Cc3cc(F)c(F)c(Cl)c3)c2=O)n1 [Compound I-0813] | < 100 nM | < 100 nM |  |
| COc1cc(-c2nc(C)ccc2Cl)cc2c1c(=O)n(Cc1ncn(C)n1)c(=O)n2Cc1cc(F)c(F)c(F)c1 [Compound I-0826] | < 100 nM | < 100 nM |  |
| [2H]C([2H])([2H])O[C@@H]1CCN(c2cc3c(c(OC)n2)c(=O)n(-c2cnc4cc(F)ccn24)c(=O)n3-c2ccc(F)c(C(F)(F)F)c2)C1 [Compound I-1011] | < 100 nM | < 100 nM |  |
| COc1nc(N2CC[C@@H](O)C2)cc2c1c(=O)n(-c1cnc3cc(F)ccn13)c(=O)n2-c1ccc(F)c(Cl)c1 [Compound I-0745] | < 100 nM | < 100 nM |  |
| CCc1cc2c(c(OC)n1)c(=O)n(-c1cnc3cc(F)ccn13)c(=O)n2-c1ccc(F)c(Cl)c1 [Compound I-1032] | < 100 nM | < 100 nM |  |
| [2H]C([2H])([2H])O[C@@H]1CCN(c2cc3c(c(OC)n2)c(=O)n(-c2cncc(OCF)c2)c(=O)n3-c2ccc(F)c(F)c2)C1 [Compound I-1012] | < 100 nM | < 100 nM |  |
| COc1cc(-c2cc(C#N)ccc2Cl)cc2c1c(=O)n(-c1cnc3ccccn13)c(=O)n2Cc1cc(F)c(F)c(F)c1 [Compound I-0661] |  | < 100 nM | EC50 (SARS-CoV-2; HEK293T/ACE2-TMPRSS2 cells, cultured 3 days, CellTiter-Glo 2.0 luminescence, read-out: EC50 (50% SARS-CoV-2 infected cell death inhibitory concentration)): < 100 nM |
| COc1nc2c(=O)n(Cc3ncn(C)n3)c(=O)n(Cc3cc(F)c(F)c(Cl)c3)c2cc1-c1nc(C)ccc1Cl [Compound I-0579] |  | 5.8 nM | EC50 (SARS-CoV-2; [3]): 12.1 nM |
| COc1nc(-c2cc(C#N)ccc2Cl)cc2c1c(=O)n(-c1cc(C)cnn1)c(=O)n2Cc1cc(F)c(F)c(F)c1 [Compound I-0929] | < 100 nM | < 100 nM |  |
| COc1nc(N2CC[C@@H](F)C2)cc2c1c(=O)n(Cc1ncn(C)n1)c(=O)n2-c1cc(F)c(Cl)c(Cl)c1 [Compound I-0802] |  | 24 nM | EC50 (SARS-CoV-2; [3]): 11.2 nM |
| [2H]C([2H])([2H])N1CCc2c(ccc(Cl)c2-c2cc(OC)c3c(=O)n(Cc4ncn(C)n4)c(=O)n(Cc4cc(F)c(F)c(F)c4)c3c2)C1=O [Compound I-0876] | < 100 nM | < 100 nM |  |
| COCCNc1cc2c(c(OC)n1)c(=O)n(-c1cnc3cc(F)ccn13)c(=O)n2-c1ccc(F)c(Cl)c1 [Compound I-1049] | < 100 nM |  | IC50 (SARS-CoV-2 3CL protease; [2]): < 100 nM |

| SMILES | EC50 (SARS-CoV-2; [1]) | IC50 (SARS-CoV-2 3CL protease; [4]) | other results |
| --- | --- | --- | --- |
| COc1nc(N2C[C@@H]3C[C@H]2CO3)cc2c1c(=O)n(-c1cncc(F)c1)c(=O)n2-c1ccc(F)c(F)c1 [Compound I-1030] | < 100 nM | < 100 nM |  |
| Cn1cnc(Cn2c(=O)c3c4c(c(N5CCCC5=O)cc3n(Cc3cc(F)c(F)c(Cl)c3)c2=O)CCO4)n1 [Compound I-0871] |  | 6.6 nM | EC50 (SARS-CoV-2; [3]): 11 nM |
| [2H]C([2H])([2H])O[C@@H]1CCN(c2cc3c(c(OC)n2)c(=O)n(-c2cncc(Cl)c2)c(=O)n3-c2ccc(F)c(F)c2)C1 [Compound I-0973] | < 100 nM | < 100 nM |  |
| COc1ccc(Cl)c(-c2cc3c(nc2OC)c(=O)n(Cc2ncn(C)n2)c(=O)n3Cc2cc(Cl)c(F)cc2C)n1 [Compound I-0821] |  | 10 nM | EC50 (SARS-CoV-2; [3]): 37.6 nM |
| COc1nc2c(=O)n(Cc3ncn(C)n3)c(=O)n(Cc3cc(Cl)cc(Cl)c3)c2cc1-c1cc(C#N)ccc1Cl [Compound I-0550] | < 100 nM | < 100 nM |  |
| COc1nc(N2CCOCC2)cc2c1c(=O)n(-c1cnc3cc(F)ccn13)c(=O)n2-c1ccc(F)c(Cl)c1 [Compound I-0743] |  | 22 nM | EC50 (SARS-CoV-2; [3]): 19.3 nM |
| COc1nc(N2CCC3(CCOC3)C2)cc2c1c(=O)n(-c1cnc3cc(F)ccn13)c(=O)n2-c1ccc(F)c(Cl)c1 (stereo not shown) [Compound I-1060] | < 100 nM | < 100 nM |  |
| COc1nc(N2CC[C@@H](F)C2)cc2c1c(=O)n(-c1cnc3cc(F)ccn13)c(=O)n2-c1ccc(F)c(Cl)c1 [Compound I-0746] |  | 1.4 nM | EC50 (SARS-CoV-2; [3]): 5.6 nM |
| COc1nc(N2CCC(F)(F)C2)cc2c1c(=O)n(-c1cnc3cc(F)ccn13)c(=O)n2-c1ccc(F)c(C(F)F)c1 [Compound I-1015] | < 100 nM | < 100 nM |  |
| O=c1c2cnc(N3[C@@H]4CC[C@H]3CNC4)cc2n(Cc2cc(F)c(F)c(Cl)c2)c(=O)n1-c1cnc2ccccn12 [Compound I-0547] |  |  | EC50 (SARS-CoV-2; Severe acute respiratory syndrome coronavirus 2, HEK-293T, 72 h, read-out: EC50 (50% SARS-CoV-2 infected cell death inhibitory concentration)): < 100 nM; IC50 (SARS-CoV-2 3CL protease; [2]): < 100 nM |
| COc1nc(-c2cc(C#N)ccc2Cl)cc2c1c(=O)n(-c1cnc3cc(F)ccn13)c(=O)n2Cc1cc(F)c(F)c(F)c1 [Compound I-0672] | < 100 nM | < 100 nM |  |
| COc1cc(-c2ccc(CC#N)cc2Cl)cc2c1c(=O)n(Cc1ncn(C)n1)c(=O)n2Cc1cc(F)c(F)c(F)c1 [Compound I-0907] | 100 to 1000 nM | < 100 nM |  |
| COc1nc(N2CC[C@@H](C#N)C2)cc2c1c(=O)n(-c1cncc(OC(F)F)c1)c(=O)n2-c1ccc(F)c(F)c1 [Compound I-0995] | < 100 nM | < 100 nM |  |
| COc1nc(N2CCC(n3cccn3)C2)cc2c1c(=O)n(-c1cnc3cc(F)ccn13)c(=O)n2-c1ccc(F)c(Cl)c1 (stereo not shown) [Compound I-0975] | < 100 nM | < 100 nM |  |
| COc1nc(N2[C@@H]3CC[C@H]2CNC3)cc2c1c(=O)n(-c1cnc3ccc(Cl)cn13)c(=O)n2Cc1cc(F)c(F)c(F)c1 [Compound I-0671] |  |  | EC50 (SARS-CoV-2; Severe acute respiratory syndrome coronavirus 2, HEK-293T, 72 h): 21 nM; IC50 (SARS-CoV-2 3CL protease; [2]): 3.3 nM |
| COc1nc(N2CC[C@@H](O)C2)cc2c1c(=O)n(-c1cnc3ccc(C#N)cn13)c(=O)n2-c1ccc(F)c(Cl)c1 [Compound I-0992] | < 100 nM | < 100 nM |  |
| Cn1cnc(Cn2c(=O)c3nc(OCC#N)c(-c4cc(C#N)ccc4Cl)cc3n(Cc3cc(F)c(F)c(F)c3)c2=O)n1 [Compound I-0685] |  | 28 nM | EC50 (SARS-CoV-2; [3]): 82.2 nM |
| COc1nc(N2CC[C@@H](C#N)C2)cc2c1c(=O)n(-c1cncc(F)c1)c(=O)n2-c1ccc(F)c(Cl)c1 [Compound I-0938] | < 100 nM | < 100 nM |  |
| COc1cc(-c2cc3c(C#N)c[nH]c3cc2Cl)cc2c1c(=O)n(Cc1ncn(C)n1)c(=O)n2Cc1cc(F)c(F)c(F)c1 [Compound I-0902] |  | 8.2 nM | EC50 (SARS-CoV-2; [3]): 104 nM |
